Test results as given in publication PMC8920107 (ADMET & DMPK, 2020).
Where two headings read alike, the source gives them in different places.

Key:
[1] = biological target: human serum albumin (HSA) (Homo sapiens, UniProt P02768); assay: Albumin binding by biomimetic HPLC on Chiralpak HSA column; conditions: 1.2 mL/min; for calculated % binding, HSA 5 % IPA: isocratic 5 % IPA, partial calibration set; for calculated % binding, HSA 15 % IPA: isocratic 15 % IPA
Procedure: (§1) The protein binding measurements were carried out on Chiralpak HSA and Chiralpak AGP columns with the dimensions of 3 x 50 mm with 5 um particle size stationary phase (Chiril Technologies Europe, France). The mobile phase was 50 mM ammonium acetate adjusted to pH 7.4 with a flow rate of 1.2 mL/min. […] The cycle time was 6 min with an additional 1 min re-equilibration time.
(§2) The cycle time was 8 min plus an additional 1 min re-equilibration time.

[2] = tested on: α-1-acid-glycoprotein (AGP); assay: Glycoprotein binding by biomimetic HPLC on Chiralpak AGP column; conditions: 1.2 mL/min; for calculated % binding, AGP 5 % IPA: isocratic 5 % IPA; for calculated % binding, AGP 8 % IPA: isocratic 8 % IPA; for calculated % binding, AGP 15 % IPA: isocratic 15 % IPA
Procedure: as §1, §2

[3] = tested on: HSA
[4] = calibration compounds, literature value, no reference given; cited from earlier work
[5] = tested on: AGP; conditions: cited from earlier work
[6] = tested on: AGP; assay: Literature AGP binding by equilibrium dialysis
[7] = tested on: HSA; conditions: calibration drugs, equilibrium dialysis literature % binding; cited from earlier work
[8] = set-up: method as in PMID 11472245; conditions: calibration set of compounds, predefined values; cited from earlier work
[9] = calibration drugs, equilibrium dialysis literature % binding

Chain of human serum albumin (HSA) (P02768 25-609): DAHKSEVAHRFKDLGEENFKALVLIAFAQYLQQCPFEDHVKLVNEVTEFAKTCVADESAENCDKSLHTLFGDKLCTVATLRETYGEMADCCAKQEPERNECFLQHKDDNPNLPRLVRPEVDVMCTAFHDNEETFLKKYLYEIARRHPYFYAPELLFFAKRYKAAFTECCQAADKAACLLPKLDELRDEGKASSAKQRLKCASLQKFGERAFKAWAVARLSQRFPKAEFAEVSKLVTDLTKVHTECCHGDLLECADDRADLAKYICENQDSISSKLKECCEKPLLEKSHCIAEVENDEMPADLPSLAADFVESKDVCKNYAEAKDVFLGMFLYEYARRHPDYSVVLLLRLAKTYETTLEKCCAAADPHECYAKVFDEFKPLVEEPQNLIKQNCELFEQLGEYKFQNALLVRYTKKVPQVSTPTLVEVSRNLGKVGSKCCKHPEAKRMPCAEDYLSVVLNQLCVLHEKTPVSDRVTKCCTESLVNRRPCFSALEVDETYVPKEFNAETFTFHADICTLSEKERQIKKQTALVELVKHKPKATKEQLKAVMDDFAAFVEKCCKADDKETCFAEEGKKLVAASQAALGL

SMILES | log k (HSA) [3] | % AGP [5, 9] [%] | log k (AGP) [6] | % HSA [7] [%] | CHI at pH 2.6 [8] | CHI at pH 7.4 [8] | CHI at pH 10.5 [8] | further results
COC(=O)C1=C(C)NC(C)=C(C(=O)OCCN(C)Cc2ccccc2)C1c1cccc([N+](=O)[O-])c1 (centres unmarked) [Nicardipine] | 1.2 | 87 | 0.8 |  |  |  |  | calculated % binding, HSA 5 % IPA [1]: 6 (96 %); calculated % binding, HSA 15 % IPA [1]: 1.05 (95 %); calculated % binding, AGP 5 % IPA [2]: >8 min (>98 %); calculated % binding, AGP 8 % IPA [2]: 5.63 (98 %); calculated % binding, AGP 15 % IPA [2]: 5.0 (96 %); % PPB (binds to plasma proteins) [4]: nicardipine (96 % PPB)
CNC(=C[N+](=O)[O-])NCCSCc1csc(CN(C)C)n1 [Nizatidine] | -0.6 | 37.1 | -0.2 | 20.4 |  |  |  | 
CC(=O)Nc1ccc(O)cc1 [Paracetamol] | -0.8 | 3.2 | -1.5 | 14.0 |  |  |  | 
c1ccc(-c2nn[nH]n2)cc1 [Phenyl tetrazole] |  |  |  |  | 42.2 | 23.6 | 16.0 | 
Cn1c(=O)c2nc(-c3ccccc3)[nH]c2n(C)c1=O [Phenyl theophylline] |  |  |  |  | 51.7 | 51.2 | 51.3 | 
CCC(=O)c1ccccc1 [Propiophenone] |  |  |  |  | 77.4 | 77.4 | 77.4 | 
CC(C)NCC(O)COc1cccc2ccccc12 (centres unmarked) [Propranolol] | 0.3 | 86 | 0.8 | 66.6 |  |  |  | calculated % binding, HSA 5 % IPA [1]: 0.76 (54 %); calculated % binding, HSA 8 % IPA ([1]; isocratic 8 % IPA): 0.73 (57.6 %); calculated % binding, HSA 15 % IPA [1]: 0.58 (66 %); calculated % binding, AGP 5 % IPA [2]: 2.78 (85 %); calculated % binding, AGP 8 % IPA [2]: 1.73 (68 %); calculated % binding, AGP 15 % IPA [2]: 1.58 (67 %); % PPB (binds to plasma proteins) [4]: propranolol (66 % PPB)
Cn1c(=O)c2[nH]cnc2n(C)c1=O [Theophylline] |  |  |  |  | 17.9 | 18.4 | 5.0 | 
COc1cc(Cc2cnc(N)nc2N)cc(OC)c1OC [Trimethoprim] | -0.2 | 46.2 | -0.1 | 37.6 |  |  |  | 
CCCCC(=O)c1ccccc1 [Valerophenone] |  |  |  |  | 96.4 | 96.20 | 96.36 | 
CC(=O)CC(c1ccccc1)c1c(O)c2ccccc2oc1=O (centres unmarked) [Warfarin] | 1.5 |  | 0.7 |  |  |  |  | % AGP [5]: 83.2%
